Test results from ChEMBL document CHEMBL1130220, “Synthesis of willardiine and 6-azawillardiine analogs: pharmacological characterization on cloned homomeric human AMPA and kainate receptor subtypes” (J Med Chem, 1997).

What was measured:
[1] = biological target: Glutamate receptor 4 (Homo sapiens, UniProt P48058); assay: biochemical
[2] = biological target: Glutamate receptor 1 (Homo sapiens, UniProt P42261); assay: biochemical
[3] = biological target: Glutamate receptor 2 (Homo sapiens, UniProt P42262); assay: biochemical
[4] = biological target: Glutamate receptor 1 (Rattus norvegicus, UniProt P19490); assay: Potency on Ionotropic glutamate receptor AMPA in hippocampal neurons; assay type: functional, tissue-based, Hippocampus
[5] = biological target: Glutamate receptor ionotropic, kainate 3 (Rattus norvegicus, UniProt P42264); assay: Potency on Ionotropic glutamate receptor kainate in dorsal root ganglion cells; assay type: functional, cell-based
Glutamate receptor ionotropic, kainate 3, sequence (P42264 whole entry): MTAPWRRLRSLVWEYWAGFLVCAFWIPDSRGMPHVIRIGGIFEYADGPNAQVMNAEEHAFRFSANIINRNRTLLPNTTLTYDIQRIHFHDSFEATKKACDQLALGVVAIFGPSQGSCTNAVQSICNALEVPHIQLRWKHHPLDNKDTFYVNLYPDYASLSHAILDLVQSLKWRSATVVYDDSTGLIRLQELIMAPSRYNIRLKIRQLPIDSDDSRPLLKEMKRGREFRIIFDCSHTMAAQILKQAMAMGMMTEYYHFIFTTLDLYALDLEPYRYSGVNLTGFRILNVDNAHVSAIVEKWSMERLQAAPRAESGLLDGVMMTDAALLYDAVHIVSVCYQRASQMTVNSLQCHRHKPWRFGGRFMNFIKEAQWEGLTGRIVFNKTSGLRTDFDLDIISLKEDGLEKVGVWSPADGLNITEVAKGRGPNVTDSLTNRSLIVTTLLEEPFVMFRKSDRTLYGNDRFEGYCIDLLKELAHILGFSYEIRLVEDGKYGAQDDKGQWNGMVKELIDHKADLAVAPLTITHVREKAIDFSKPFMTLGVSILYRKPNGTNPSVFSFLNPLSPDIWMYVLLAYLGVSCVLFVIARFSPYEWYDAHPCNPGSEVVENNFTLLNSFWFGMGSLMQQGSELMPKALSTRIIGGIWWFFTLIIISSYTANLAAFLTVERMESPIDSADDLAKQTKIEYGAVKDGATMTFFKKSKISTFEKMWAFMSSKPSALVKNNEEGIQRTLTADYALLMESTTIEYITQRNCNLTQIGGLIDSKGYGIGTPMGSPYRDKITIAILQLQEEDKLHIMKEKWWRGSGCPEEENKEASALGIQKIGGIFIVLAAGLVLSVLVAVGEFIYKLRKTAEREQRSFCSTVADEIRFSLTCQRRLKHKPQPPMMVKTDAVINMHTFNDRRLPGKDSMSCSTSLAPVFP

Glutamate receptor 2, sequence (P42262 whole entry): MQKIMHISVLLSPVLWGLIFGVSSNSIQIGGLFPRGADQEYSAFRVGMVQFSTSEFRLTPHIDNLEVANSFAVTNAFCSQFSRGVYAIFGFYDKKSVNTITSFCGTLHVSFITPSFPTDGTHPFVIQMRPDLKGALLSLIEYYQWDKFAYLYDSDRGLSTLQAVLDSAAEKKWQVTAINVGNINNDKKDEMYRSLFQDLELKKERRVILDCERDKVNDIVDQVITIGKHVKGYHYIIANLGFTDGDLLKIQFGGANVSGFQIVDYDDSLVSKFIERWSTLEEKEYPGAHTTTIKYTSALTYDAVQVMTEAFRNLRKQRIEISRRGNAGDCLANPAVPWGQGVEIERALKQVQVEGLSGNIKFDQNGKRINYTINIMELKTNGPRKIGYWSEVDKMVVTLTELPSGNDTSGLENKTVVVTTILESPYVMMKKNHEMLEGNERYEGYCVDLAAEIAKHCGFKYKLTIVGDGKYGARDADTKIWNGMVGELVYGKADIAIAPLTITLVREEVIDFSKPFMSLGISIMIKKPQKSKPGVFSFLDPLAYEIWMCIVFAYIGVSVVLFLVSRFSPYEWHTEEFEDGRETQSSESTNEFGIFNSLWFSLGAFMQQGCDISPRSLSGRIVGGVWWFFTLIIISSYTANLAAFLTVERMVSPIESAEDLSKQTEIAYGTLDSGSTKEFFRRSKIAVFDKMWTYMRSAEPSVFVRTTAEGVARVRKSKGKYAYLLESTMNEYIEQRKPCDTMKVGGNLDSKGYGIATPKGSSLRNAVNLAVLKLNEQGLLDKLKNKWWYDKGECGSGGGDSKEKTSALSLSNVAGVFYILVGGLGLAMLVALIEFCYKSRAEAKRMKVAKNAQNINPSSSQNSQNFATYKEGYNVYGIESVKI
Glutamate receptor 4, sequence (P48058 whole entry): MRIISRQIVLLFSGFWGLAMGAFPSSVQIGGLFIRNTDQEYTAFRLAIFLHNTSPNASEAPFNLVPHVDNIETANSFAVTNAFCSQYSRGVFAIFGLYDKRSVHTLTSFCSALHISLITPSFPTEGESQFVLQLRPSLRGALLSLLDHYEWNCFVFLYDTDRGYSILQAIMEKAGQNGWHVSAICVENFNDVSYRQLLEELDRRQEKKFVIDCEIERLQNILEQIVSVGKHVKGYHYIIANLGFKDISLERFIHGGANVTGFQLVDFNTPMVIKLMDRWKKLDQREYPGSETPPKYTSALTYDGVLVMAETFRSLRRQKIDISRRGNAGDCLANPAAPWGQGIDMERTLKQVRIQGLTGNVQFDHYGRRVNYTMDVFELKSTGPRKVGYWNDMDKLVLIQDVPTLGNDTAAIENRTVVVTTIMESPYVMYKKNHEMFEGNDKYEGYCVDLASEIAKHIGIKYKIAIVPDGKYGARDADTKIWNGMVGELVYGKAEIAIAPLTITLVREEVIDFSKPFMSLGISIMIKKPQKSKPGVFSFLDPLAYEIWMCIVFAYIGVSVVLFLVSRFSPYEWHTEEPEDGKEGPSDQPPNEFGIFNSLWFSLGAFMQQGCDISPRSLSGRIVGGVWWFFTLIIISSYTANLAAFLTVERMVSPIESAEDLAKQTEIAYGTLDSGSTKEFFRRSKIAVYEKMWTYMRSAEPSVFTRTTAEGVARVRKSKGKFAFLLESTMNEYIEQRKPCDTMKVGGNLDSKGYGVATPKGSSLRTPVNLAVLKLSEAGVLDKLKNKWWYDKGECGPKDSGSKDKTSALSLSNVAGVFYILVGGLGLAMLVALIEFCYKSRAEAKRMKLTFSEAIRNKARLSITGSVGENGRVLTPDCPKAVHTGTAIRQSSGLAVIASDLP
Glutamate receptor 1 (Homo sapiens, UniProt P42261), sequence (P42261 whole entry): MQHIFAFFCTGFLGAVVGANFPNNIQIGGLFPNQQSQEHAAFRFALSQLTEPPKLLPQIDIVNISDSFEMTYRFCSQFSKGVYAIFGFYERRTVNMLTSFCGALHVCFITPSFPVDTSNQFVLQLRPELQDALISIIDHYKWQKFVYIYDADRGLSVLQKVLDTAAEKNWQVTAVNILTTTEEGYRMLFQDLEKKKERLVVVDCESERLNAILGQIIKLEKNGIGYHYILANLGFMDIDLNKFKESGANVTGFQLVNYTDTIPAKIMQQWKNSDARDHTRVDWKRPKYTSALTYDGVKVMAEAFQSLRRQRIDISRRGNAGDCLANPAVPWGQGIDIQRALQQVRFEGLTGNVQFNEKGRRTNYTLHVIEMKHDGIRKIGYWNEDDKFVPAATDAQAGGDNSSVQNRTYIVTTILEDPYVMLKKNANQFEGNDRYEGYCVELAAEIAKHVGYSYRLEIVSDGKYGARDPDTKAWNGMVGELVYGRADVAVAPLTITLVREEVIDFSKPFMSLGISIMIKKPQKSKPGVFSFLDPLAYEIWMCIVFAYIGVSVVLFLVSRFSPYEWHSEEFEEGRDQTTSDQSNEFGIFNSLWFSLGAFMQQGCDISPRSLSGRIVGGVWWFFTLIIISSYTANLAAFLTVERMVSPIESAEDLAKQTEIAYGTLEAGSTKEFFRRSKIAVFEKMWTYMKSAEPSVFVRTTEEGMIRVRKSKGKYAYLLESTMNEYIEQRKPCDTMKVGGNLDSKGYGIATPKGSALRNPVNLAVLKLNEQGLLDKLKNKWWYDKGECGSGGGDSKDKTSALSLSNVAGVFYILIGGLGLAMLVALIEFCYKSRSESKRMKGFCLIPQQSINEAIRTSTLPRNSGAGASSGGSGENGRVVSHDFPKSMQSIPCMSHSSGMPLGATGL
Glutamate receptor 1 (Rattus norvegicus, UniProt P19490), sequence (P19490 whole entry): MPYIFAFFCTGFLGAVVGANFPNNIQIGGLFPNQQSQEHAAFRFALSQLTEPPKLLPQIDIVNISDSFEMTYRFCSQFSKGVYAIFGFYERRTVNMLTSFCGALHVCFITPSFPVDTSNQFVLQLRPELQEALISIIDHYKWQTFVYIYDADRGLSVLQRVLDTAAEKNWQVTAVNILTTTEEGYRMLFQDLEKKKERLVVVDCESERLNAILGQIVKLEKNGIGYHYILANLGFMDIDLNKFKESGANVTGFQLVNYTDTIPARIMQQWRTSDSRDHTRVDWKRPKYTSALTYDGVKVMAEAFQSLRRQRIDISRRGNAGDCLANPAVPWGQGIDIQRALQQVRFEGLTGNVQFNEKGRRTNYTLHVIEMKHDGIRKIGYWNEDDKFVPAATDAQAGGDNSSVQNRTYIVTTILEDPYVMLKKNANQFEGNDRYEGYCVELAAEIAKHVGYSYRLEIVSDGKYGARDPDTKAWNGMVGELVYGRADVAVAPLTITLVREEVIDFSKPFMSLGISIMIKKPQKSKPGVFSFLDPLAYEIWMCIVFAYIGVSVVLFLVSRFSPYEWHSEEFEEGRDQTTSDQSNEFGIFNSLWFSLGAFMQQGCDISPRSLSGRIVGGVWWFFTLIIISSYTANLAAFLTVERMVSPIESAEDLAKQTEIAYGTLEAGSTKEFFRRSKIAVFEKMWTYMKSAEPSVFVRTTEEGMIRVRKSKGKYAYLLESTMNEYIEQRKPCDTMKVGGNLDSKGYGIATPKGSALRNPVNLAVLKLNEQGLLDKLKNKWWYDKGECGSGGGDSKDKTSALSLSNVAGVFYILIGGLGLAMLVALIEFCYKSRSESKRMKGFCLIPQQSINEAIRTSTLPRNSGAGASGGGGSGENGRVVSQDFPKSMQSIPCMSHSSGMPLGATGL

Row | Ki [3] | SMILES | Ki [1] | Ki [2] | EC50 [4] | EC50 [5]
1 |  | N[C@@H](Cn1ccc(=O)[nH]c1=O)C(=O)O [(S)-WILLARDIINE] | 8850 nM | 386 nM |  | 
2 |  | N[C@@H](Cn1cc(Cl)c(=O)[nH]c1=O)C(=O)O | 451 nM | 65 nM |  | 
3 |  | N[C@@H](Cn1cc(Br)c(=O)[nH]c1=O)C(=O)O | 457 nM | 92 nM |  | 
4 | 101 nM | N[C@@H](Cn1nc(I)c(=O)[nH]c1=O)C(=O)O | 19.9 nM | 73.9 nM |  | 
5 | 372 nM | Cc1nn(C[C@H](N)C(=O)O)c(=O)[nH]c1=O | 89 nM | 240 nM |  | 
6 | 19.3 nM | N[C@@H](Cn1nc(Br)c(=O)[nH]c1=O)C(=O)O | 7.9 nM | 29 nM |  | 
7 |  | N[C@@H](Cn1cc([N+](=O)[O-])c(=O)[nH]c1=O)C(=O)O | 207 nM | 279 nM |  | 
8 |  | N[C@@H](Cn1cc(F)c(=O)[nH]c1=O)C(=O)O | 305 nM | 14.7 nM |  | 
9 | 461 nM | N[C@@H](Cn1ncc(=O)[nH]c1=O)C(=O)O | 189 nM | 163 nM |  | 
10 |  | N[C@@H](Cn1cc(I)c(=O)[nH]c1=O)C(=O)O | 972 nM | 163 nM | 19200 nM | 140 nM

Row | SMILES | Ki [3] | Ki [1] | Ki [2] | EC50 [4] | EC50 [5]
11 | N[C@@H](Cn1nc(Cl)c(=O)[nH]c1=O)C(=O)O | 16.7 nM | 3.6 nM | 7.1 nM |  | 
